Measurements: US12673050B2, “Compositions and their use for the treatment of A1-antitrypsin deficiency” (Centessa Pharmaceuticals (UK) Limited, priority 2021, dated 2026)

How the values were obtained:
[1] = target: cardiac potassium (hERG) channels (Homo sapiens, UniProt Q12809); assay: hERG channel inhibition, Patchliner automated patch clamp; format: cell-based; settings: 6-point curve, maximum 100 μM
Method: (§1) (S)-1-((2-(trifluoromethyl)phenyl)sulfonyl)piperidine-3-carboxylic acid was tested for inhibition of cardiac potassium (hERG) channels using the Patchliner automated patch clamp. 6-Point concentration-response curves were generated using half-log serial dilutions from a maximum final test concentration of 100 μM. IC50 values were obtained from a 4-parameter logistic fit of the concentration-response data. […] Reference compound values were consistent with those presented in the literature (Elkins et al., 2013 J. Pharm. Tox. Meth. 68:11-122).

hERG = hERG (Homo sapiens, UniProt Q12809); assay: as above; format: cell-based; settings: human; at 100 μM
Sequence of hERG (Q12809 whole entry): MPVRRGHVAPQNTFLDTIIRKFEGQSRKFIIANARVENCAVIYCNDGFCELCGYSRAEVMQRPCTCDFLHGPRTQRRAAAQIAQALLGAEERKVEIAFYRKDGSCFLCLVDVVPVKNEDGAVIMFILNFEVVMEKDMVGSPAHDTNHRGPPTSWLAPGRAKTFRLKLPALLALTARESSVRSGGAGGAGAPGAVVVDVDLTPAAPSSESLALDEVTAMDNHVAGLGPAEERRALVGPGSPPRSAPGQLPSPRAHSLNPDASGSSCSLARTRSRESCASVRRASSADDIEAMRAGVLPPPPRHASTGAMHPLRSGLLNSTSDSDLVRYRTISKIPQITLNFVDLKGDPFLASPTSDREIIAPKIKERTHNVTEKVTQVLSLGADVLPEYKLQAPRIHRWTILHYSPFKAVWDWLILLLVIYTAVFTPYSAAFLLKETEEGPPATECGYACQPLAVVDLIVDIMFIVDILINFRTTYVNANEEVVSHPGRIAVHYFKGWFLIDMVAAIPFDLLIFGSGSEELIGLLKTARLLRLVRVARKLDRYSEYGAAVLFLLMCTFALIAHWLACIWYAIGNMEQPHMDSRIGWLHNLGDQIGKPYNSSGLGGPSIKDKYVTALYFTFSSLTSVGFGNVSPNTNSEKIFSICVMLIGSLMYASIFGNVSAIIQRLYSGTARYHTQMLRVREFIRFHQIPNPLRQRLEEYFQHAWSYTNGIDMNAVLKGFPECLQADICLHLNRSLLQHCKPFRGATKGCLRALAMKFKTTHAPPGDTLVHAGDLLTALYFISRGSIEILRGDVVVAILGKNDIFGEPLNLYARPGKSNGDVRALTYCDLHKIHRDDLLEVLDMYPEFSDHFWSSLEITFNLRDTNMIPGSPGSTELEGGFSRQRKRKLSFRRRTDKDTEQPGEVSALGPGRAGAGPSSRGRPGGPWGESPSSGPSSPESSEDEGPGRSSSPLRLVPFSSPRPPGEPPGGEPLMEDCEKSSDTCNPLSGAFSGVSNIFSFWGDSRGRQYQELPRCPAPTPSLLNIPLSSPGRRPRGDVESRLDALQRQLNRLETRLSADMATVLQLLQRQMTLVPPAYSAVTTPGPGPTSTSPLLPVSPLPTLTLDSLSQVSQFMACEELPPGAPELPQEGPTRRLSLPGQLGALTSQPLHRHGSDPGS
Method: as §1

human Z A1AT = human Z A1AT (Homo sapiens, UniProt P01009, E366K); assay: Circulating human Z A1AT levels in huZ mice; format: in vivo, mouse; design: from tissue; host or cells: huZ transgenic mice (line Z11.03, C57Bl/6); expressed in liver, measured in plasma; settings: huZ mice, 5, 15 or 50 mg/kg twice a day by oral gavage for 14 days, plasma days 12-14
Sequence of human Z A1AT (P01009 25-418 E366K): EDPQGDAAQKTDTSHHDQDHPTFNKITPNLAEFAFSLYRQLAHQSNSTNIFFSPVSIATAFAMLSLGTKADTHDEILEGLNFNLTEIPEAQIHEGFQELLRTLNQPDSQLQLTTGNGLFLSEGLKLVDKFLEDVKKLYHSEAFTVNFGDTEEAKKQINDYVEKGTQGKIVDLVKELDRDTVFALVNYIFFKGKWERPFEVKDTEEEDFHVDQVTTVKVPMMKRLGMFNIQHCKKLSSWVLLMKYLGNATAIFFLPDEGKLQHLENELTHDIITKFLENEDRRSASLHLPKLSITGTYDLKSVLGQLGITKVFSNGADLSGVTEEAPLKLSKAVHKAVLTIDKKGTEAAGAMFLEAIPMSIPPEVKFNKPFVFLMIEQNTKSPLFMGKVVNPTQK
Source text: The huZ mouse (also referred to as the PiZZ mouse) is a transgenic mouse strain that contains multiple copies of the Z variant of the human A1AT gene, developed by two separate groups (Dycaico et al (Science (1988) 242:1409-12) and Carlson et al (J. Clin Invest (1989) 83:1183-90)). HuZ mice are on a C57Bl/6 background and express the human Z A1AT protein in liver tissue. The mice used in this study are from the progeny of Carlson and colleagues (transgenic line Z11.03). […]
HuZ mice (n=4/group: male or female) with basal human A1AT plasma levels of between 200-600 μg/ml were treated with either vehicle or (S)-1-((2-(trifluoromethyl)phenyl)sulfonyl)piperidine-3-carboxylic acid at 5, 15 or 50 mg/kg twice a day by oral gavage for 14 consecutive days. […] Human A1AT levels in mouse plasma samples were measured by ELISA (Human Serpin A1/α1 antitrypsin duo set ELISA, R& D Systems, DY1268) per manufacturer's instructions.
Briefly, a 96 well plate was coated with human A1AT capture antibody overnight at room temperature (1:180 dilution from stock, 100 μl final volume/well). […] After which, 50 μl stop solution (2M H2SO4) was added and optical density (OD) of each well was read at 450 nm with 570 nm blank subtracted from each well using a microplate reader. […]

Sequence of cardiac potassium (hERG) channels (Q12809 whole entry): as the sequence (Q12809 whole entry) above

SMILES: O=C(O)[C@H]1CCCN(S(=O)(=O)c2ccccc2C(F)(F)F)C1 [(S)-1-((2-(Trifluoromethyl)phenyl)sulfonyl)piperidine-3-carboxylic acid]
- IC50 [1]: > 100 µM
- inhibition at 100 µM (hERG): 7%
- circulating human Z A1AT compared to baseline levels (human Z A1AT): stimulates secretion of human Z A1AT compared to baseline levels in huZ mice in a dose dependent manner
